# PubChem BioAssay (NCI)
#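 All cell lines were grown in 96-well plates and treated with compound for 48 hours. GI50: concentration for 50% inhibition of growth. TGI marks complete inhibition of growth.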
# Experiments:
# Test in all cases: NCI tumour cell line growth inhibition, 48 h
# [1] = system: MOLT-4 leukemia
# [2] = system: HOP-62 NSCLC
# [3] = system: HT29 colon
# [4] = system: NCI/ADR-RES ovarian
# [5] = system: NCI-H522 lung
# [6] = system: U251 CNS
# [7] = system: A498 renal
# [8] = system: SK-OV-3 ovarian
# [9] = system: EKVX NSCLC
# [10] = system: RXF 393 renal
smiles,measurement,setting,value
CCOP(=O)(OCC)C(Cc1c[nH]c2ccccc12)C(=O)O (centres undefined),TGI,[1],> 100 µM
same,TGI,[2],> 100 µM
same,TGI,[3],> 100 µM
same,TGI,[4],> 100 µM
same,TGI,[5],> 100 µM
same,TGI,[6],> 100 µM
same,TGI,[7],> 100 µM
same,TGI,[8],> 100 µM
Fc1ccc(C2CC(c3cccc(Nc4ccncc4)c3)=NN2c2ccccc2)cc1 (centres undefined),GI50,[9],1.99 µM
same,TGI,[9],5.71 µM
same,GI50,[1],2.47 µM
same,TGI,[1],5.81 µM
same,GI50,[3],2.13 µM
same,TGI,[3],5.09 µM
same,GI50,[4],1.65 µM
same,TGI,[4],3.13 µM
same,GI50,[5],1.81 µM
same,TGI,[5],3.98 µM
same,GI50,[6],1.84 µM
same,TGI,[6],3.64 µM
same,GI50,[7],0.446 µM
same,TGI,[7],6.92 µM
same,GI50,[8],5.7 µM
same,TGI,[8],19.9 µM
CC(O)C1(O)C(O)CC(OC2c3cc4c(c(O)c3[C@@H]3C[C@@]2(C)OC32C=c3cc[nH]c3=N2)C(=O)c2cccc(O)c2C4=O)OC1C (some centres undefined),TGI,[9],3.6 µM
same,TGI,[1],2.67 µM
same,TGI,[2],5.37 µM
same,TGI,[3],2.68 µM
same,TGI,[4],18 µM
same,TGI,[5],1.09 µM
same,TGI,[6],9.03 µM
same,TGI,[7],2.75 µM
same,TGI,[8],9.47 µM
same,TGI,[10],2.31 µM
CC(C)=NC(C(=O)O)C(C)(C)S (centres undefined),TGI,[9],> 100 µM
same,TGI,[1],> 100 µM
same,TGI,[2],> 100 µM
same,TGI,[3],> 100 µM
same,TGI,[4],> 100 µM
same,TGI,[5],> 100 µM
same,TGI,[6],> 100 µM
same,TGI,[7],> 100 µM
same,TGI,[8],> 100 µM
same,TGI,[10],> 100 µM
Cc1ccc(S(=O)(=O)NCCCSCCN)cc1,TGI,[1],> 100 µM
same,TGI,[3],> 100 µM
same,TGI,[4],> 100 µM
same,TGI,[5],> 100 µM
same,TGI,[6],> 100 µM
same,TGI,[7],> 100 µM
same,TGI,[8],> 100 µM
same,TGI,[10],> 100 µM
C[n+]1c(-c2ccc(/C=N\Nc3ccnc(N/N=C/c4ccc(-c5cn6ccsc6[n+]5C)cc4)n3)cc2)cn2ccsc21,TGI,[9],50 µM
same,TGI,[1],> 100 µM
same,TGI,[2],51.6 µM
same,TGI,[3],> 100 µM
same,TGI,[4],> 100 µM
same,TGI,[5],> 100 µM
same,TGI,[6],94.5 µM
same,TGI,[7],54.8 µM
same,TGI,[8],> 100 µM
same,TGI,[10],56.3 µM
Nc1nc(N)c(N=Nc2ccccc2)c(=O)[nH]1,TGI,[1],> 100 µM
same,TGI,[2],> 100 µM
same,TGI,[3],> 100 µM
same,TGI,[5],> 100 µM
same,TGI,[6],> 100 µM
same,TGI,[7],> 100 µM
same,TGI,[8],> 100 µM
OCC1NC(CO)C(O)C1O (centres undefined),TGI,[1],> 100 µM
same,TGI,[2],> 100 µM
same,TGI,[3],> 100 µM
same,TGI,[4],> 100 µM
same,TGI,[6],> 100 µM
same,TGI,[7],> 100 µM
same,TGI,[8],> 100 µM
same,TGI,[10],> 100 µM
Nc1ccc(C2(c3ccc(N)cc3)C3CC4CC(C3)CC2C4)cc1,TGI,[9],32 µM
same,TGI,[1],28.2 µM
same,TGI,[2],29.3 µM
same,TGI,[3],26.3 µM
same,TGI,[4],23.4 µM
same,TGI,[5],30.5 µM
same,TGI,[6],37 µM
same,TGI,[7],41.3 µM
same,TGI,[8],30 µM
same,TGI,[10],17.8 µM
CC(=O)OC/C=C\Cn1ncc(=O)[nH]c1=O,TGI,[9],38.8 µM
same,TGI,[1],44 µM
same,TGI,[2],43.9 µM
same,TGI,[3],29.9 µM
same,TGI,[4],50.6 µM
same,TGI,[5],32.4 µM
same,TGI,[6],28.2 µM
same,TGI,[7],31.9 µM
same,TGI,[10],37.1 µM
O=C(N[C@H](CO)[C@H](O)c1ccc([N+](=O)[O-])cc1)C(Cl)Cl,TGI,[9],> 100 µM
same,TGI,[1],> 100 µM
same,TGI,[2],> 100 µM
same,TGI,[3],> 100 µM
same,TGI,[4],> 100 µM
same,TGI,[5],> 100 µM
same,TGI,[6],> 100 µM
same,TGI,[7],> 100 µM
same,TGI,[8],> 100 µM
same,TGI,[10],> 100 µM
C=C(CN(C)C)C(=O)c1ccccc1,TGI,[9],46.3 µM
same,TGI,[1],15.3 µM
same,TGI,[2],> 58.3 µM
same,TGI,[3],24.2 µM
same,TGI,[4],> 100 µM
same,TGI,[5],1.69 µM
same,TGI,[6],35.1 µM
same,TGI,[7],41.7 µM
same,TGI,[8],41 µM
same,TGI,[10],6.47 µM
COc1ccc(/C=C/c2cc(O)cc(OC3OC(CO)C(O)C(O)C3O)c2)cc1O (centres undefined),TGI,[9],> 100 µM
same,TGI,[1],> 100 µM
same,TGI,[2],> 100 µM
same,TGI,[3],> 100 µM
same,TGI,[4],> 100 µM
same,TGI,[5],> 100 µM
same,TGI,[6],> 100 µM
same,TGI,[7],> 100 µM
same,TGI,[8],> 100 µM
same,TGI,[10],> 100 µM
COc1ncnc2c(Cl)c(C(O)c3ccccc3)c(Cl)cc12 (centres undefined),TGI,[9],> 100 µM
same,TGI,[1],> 100 µM
same,TGI,[2],32.5 µM
same,TGI,[3],> 100 µM
same,TGI,[4],> 100 µM
same,TGI,[5],> 100 µM
same,TGI,[6],> 100 µM
same,TGI,[7],53.2 µM
same,TGI,[8],49 µM
same,TGI,[10],35.5 µM
COc1ccc(CCn2ccc(C)n2)c(OC)c1,TGI,[9],> 100 µM
same,TGI,[1],> 100 µM
same,TGI,[2],> 100 µM
same,TGI,[3],> 100 µM
same,TGI,[4],> 100 µM
same,TGI,[6],> 100 µM
same,TGI,[8],> 100 µM
same,TGI,[10],> 100 µM
O=S1(=O)C[C@H](NCc2ccccc2)[C@H](NCc2ccccc2)C1,TGI,[9],> 100 µM
same,TGI,[1],> 100 µM
same,TGI,[2],> 100 µM
same,TGI,[3],> 100 µM
same,TGI,[4],> 100 µM
same,TGI,[5],68.2 µM
same,TGI,[6],> 100 µM
same,TGI,[8],> 100 µM
same,TGI,[10],> 100 µM
CC(C)N(CCNc1nc(C(Cl)(Cl)Cl)nc2cc(Cl)ccc12)C(C)C,GI50,[9],1.57 µM
same,TGI,[9],4.32 µM
same,GI50,[2],1.6 µM
same,TGI,[2],3.12 µM
same,GI50,[3],0.523 µM
same,TGI,[3],1.85 µM
same,GI50,[4],1.54 µM
same,TGI,[4],3.39 µM
same,GI50,[5],1.16 µM
same,TGI,[5],2.63 µM
same,GI50,[6],1.21 µM
same,TGI,[6],2.53 µM
same,GI50,[7],1.27 µM
same,TGI,[7],2.66 µM
same,GI50,[10],1.41 µM
same,TGI,[10],2.78 µM
